Test results: PubChem BioAssay AID248 (DTP/NCI, 2004)
“And” between values parts separate entries of the source, which are not always exact repeats. Equal values may be shown once. Toxic doses and inconclusive results are not listed. Rule as the data show it: active = T/C of 150% or more; inactive = T/C below 125%.

Tested on: L1210 leukemia ip in BDF1 mice, survival T/C
Assay: NCI In Vivo Anticancer Drug Screen. Data for tumor model L1210 Leukemia (intraperitoneal) in B6D2F1 (BDF1) mice
Details: endpoint: mean survival time, higher = longer survival
How it was run: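 Transplantable tumor model; survival measured in treated vs vehicle control mice. Value = treated/control.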

[1] = dose: 100.0 mg/kg/injection, schedule: Q04DX003 (ip), vehicle: saline
[2] = dose: 200.0 mg/kg/injection, schedule: Q04DX003 (ip), vehicle: saline
[3] = dose: 100.0 mg/kg/injection, schedule: Q01DX001 (ip), vehicle: carboxymethylcellulose (CMC)
[4] = dose: 200.0 mg/kg/injection, schedule: Q01DX001 (ip), vehicle: carboxymethylcellulose (CMC)
[5] = dose: 400.0 mg/kg/injection, schedule: Q01DX001 (ip), vehicle: carboxymethylcellulose (CMC)
[6] = dose: 6.25 mg/kg/injection, schedule: Q01DX009 (ip), vehicle: saline
[7] = dose: 12.5 mg/kg/injection, schedule: Q01DX009 (ip), vehicle: saline
[8] = dose: 25.0 mg/kg/injection, schedule: Q04DX003 (ip), vehicle: saline
[9] = dose: 50.0 mg/kg/injection, schedule: Q04DX003 (ip), vehicle: saline
[10] = dose: 100.0 mg/kg/injection, schedule: Q04DX003 (ip), vehicle: acetone
[11] = dose: 200.0 mg/kg/injection, schedule: Q04DX003 (ip), vehicle: acetone
[12] = dose: 100.0 mg/kg/injection, schedule: Q01DX009 (ip), vehicle: Klucel (hydroxypropylcellulose) (HPC)
[13] = dose: 200.0 mg/kg/injection, schedule: Q01DX009 (ip), vehicle: Klucel (hydroxypropylcellulose) (HPC)
[14] = dose: 100.0 mg/kg/injection, schedule: Q01DX001 (ip), vehicle: Klucel (hydroxypropylcellulose) (HPC)
[15] = dose: 200.0 mg/kg/injection, schedule: Q01DX001 (ip), vehicle: Klucel (hydroxypropylcellulose) (HPC)
[16] = dose: 400.0 mg/kg/injection, schedule: Q01DX001 (ip), vehicle: Klucel (hydroxypropylcellulose) (HPC)

Measured: T/C

CC/C(=N\N=C(N)N)c1ccc(NC(=S)Nc2ccccc2)cc1
inactive: dose: 20.0 mg/kg/injection, schedule: Q01DX009 (ip), vehicle: saline 101 % of control | dose: 40.0 mg/kg/injection, schedule: Q01DX009 (ip), vehicle: saline 101 % of control | dose: 80.0 mg/kg/injection, schedule: Q01DX009 (ip), vehicle: saline 107 % of control

OC(c1ccccc1)(c1ccccc1)c1ccccc1Cl
inactive: [1] 94 % of control | [2] 91 % of control | dose: 400.0 mg/kg/injection, schedule: Q04DX003 (ip), vehicle: saline 91 % of control

Cc1cc(C)c(OC2=C(c3c(C)cc(C)cc3C)C(=O)c3ccccc32)c(C)c1
inactive: [3] 91 % of control | [4] 89 % of control | [5] 96 % of control

CCC1CC[N-]CC1.CCC1CC[N-]CC1.[Cl][Pt+2]([Cl])([Cl])[Cl]
inactive: [6] 103 % of control | [7] 110 % of control | dose: 12.5 mg/kg/injection, schedule: Q04DX003 (ip), vehicle: saline 97 % of control | dose: 25.0 mg/kg/injection, schedule: Q01DX009 (ip), vehicle: saline 86 % of control | [8] 95 % of control | [9] 104 % of control

CC/C(C)=C\CC/C(C)=C/COc1cccc([N+](=O)[O-])c1
inactive: dose: 50.0 mg/kg/injection, schedule: Q01DX009 (ip), vehicle: carboxymethylcellulose (CMC) 97 % of control | dose: 100.0 mg/kg/injection, schedule: Q01DX009 (ip), vehicle: carboxymethylcellulose (CMC) 92 % of control | dose: 200.0 mg/kg/injection, schedule: Q01DX009 (ip), vehicle: carboxymethylcellulose (CMC) 101 % of control

[N-]=[N+]=Nc1ccc2[nH]c3ccccc3c(=O)c2c1
inactive: dose: 50.0 mg/kg/injection, schedule: Q01DX009 (ip), vehicle: saline 90 % of control | dose: 100.0 mg/kg/injection, schedule: Q01DX009 (ip), vehicle: saline 93 % of control | [10] 92 % of control | dose: 200.0 mg/kg/injection, schedule: Q01DX009 (ip), vehicle: saline 95 % of control | [11] 97 % of control | dose: 400.0 mg/kg/injection, schedule: Q04DX003 (ip), vehicle: acetone 97 % of control

O=C(/C=C(\C(=O)c1ccccc1)c1ccccc1)c1ccc(-c2ccccc2)cc1
inactive: dose: 100.0 mg/kg/injection, schedule: Q04DX002 (ip), vehicle: Klucel (hydroxypropylcellulose) (HPC) 97 % of control | dose: 200.0 mg/kg/injection, schedule: Q04DX002 (ip), vehicle: Klucel (hydroxypropylcellulose) (HPC) 101 % of control | dose: 400.0 mg/kg/injection, schedule: Q04DX002 (ip), vehicle: Klucel (hydroxypropylcellulose) (HPC) 93 % of control

O=C(O)c1c[nH]c2c(C(F)(F)F)cccc2c1=O
inactive: dose: 50.0 mg/kg/injection, schedule: Q01DX001 (ip), vehicle: carboxymethylcellulose (CMC) 88 % of control | [3] 98 % of control | [4] 88 % of control | [5] 90 % of control

CCOC(=O)CC(C(=O)OCC)c1nc2ccccc2[nH]c1=O (stereo unspecified)
inactive: dose: 50.0 mg/kg/injection, schedule: Q01DX009 (ip), vehicle: Klucel (hydroxypropylcellulose) (HPC) 93 % of control and 113 % of control | [12] 101 % of control and 90 % of control | [13] 93 % of control and 103 % of control

CN(C(=O)OCc1ccccc1)c1ccc(C(=O)NC(CCC(=O)O)C(=O)O)cc1 (stereo unspecified)
inactive: [3] 94 % of control | [4] 102 % of control | [5] 96 % of control

c1ccc2c(c1)Cc1ccccc1C2
inactive: dose: 100.0 mg/kg/injection, schedule: Q04DX002 (ip), vehicle: other 110 % of control | dose: 200.0 mg/kg/injection, schedule: Q04DX002 (ip), vehicle: other 94 % of control | dose: 400.0 mg/kg/injection, schedule: Q04DX002 (ip), vehicle: other 113 % of control

CC(C)(N)Cc1ccc(Cl)cc1
inactive: [8] 111 % of control | [9] 106 % of control | [1] 104 % of control | [2] 92 % of control

C#CCCCCC#CCCCCCl
inactive: dose: 25.0 mg/kg/injection, schedule: Q01DX009 (ip), vehicle: acetone 104 % of control | dose: 50.0 mg/kg/injection, schedule: Q01DX009 (ip), vehicle: acetone 95 % of control | dose: 100.0 mg/kg/injection, schedule: Q01DX009 (ip), vehicle: acetone 87 % of control | [10] 90 % of control | [11] 93 % of control

CCC1C(=O)CC(C(=O)O)C1C(=O)O (stereo unspecified)
inactive: dose: 100.0 mg/kg/injection, schedule: Q04DX002 (ip), vehicle: saline with Tween-80 100 % of control | dose: 200.0 mg/kg/injection, schedule: Q04DX002 (ip), vehicle: saline with Tween-80 96 % of control

CN(C)C(=O)NN
inactive: dose: 100.0 mg/kg/injection, schedule: Q01DX009 (ip), vehicle: saline with Tween-80 104 % of control

O=C1C=CC(=O)N1CN1CCOCC1 (tested in a mixture with another compound)
inactive: [6] 92 % of control | [7] 100 % of control | [14] 103 % of control and 100 % of control | [15] 103 % of control and 100 % of control and 97 % of control | [16] 95 % of control [middle of 4 runs]

CCCNC(=O)c1cc(NC(=O)Nc2ccc(C3=NCCN3)cc2)cc(NC(=O)Nc2ccc(C3=NCCN3)cc2)c1
inactive: dose: 2.5 mg/kg/injection, schedule: Q01DX Z (ip), vehicle: carboxymethylcellulose (CMC) 104 % of control | dose: 5.0 mg/kg/injection, schedule: Q01DX Z (ip), vehicle: carboxymethylcellulose (CMC) 112 % of control | dose: 20.0 mg/kg/injection, schedule: Q01DX Z (ip), vehicle: carboxymethylcellulose (CMC) 124 % of control | dose: 42.0 mg/kg/injection, schedule: Q01DX Z (ip), vehicle: carboxymethylcellulose (CMC) 115 % of control

CN(CCC#N)C1=CCCC1
inactive: dose: 100.0 mg/kg/injection, schedule: Q04DX003 (ip), vehicle: saline sonified 100 % of control | dose: 200.0 mg/kg/injection, schedule: Q04DX003 (ip), vehicle: saline sonified 111 % of control | dose: 400.0 mg/kg/injection, schedule: Q04DX003 (ip), vehicle: saline sonified 96 % of control

CC(C)N(CCC#N)C(=S)Nc1cccc(C(F)(F)F)c1
inactive: dose: 100.0 mg/kg/injection, schedule: Q01DX009 (ip), vehicle: other 102 % of control | dose: 200.0 mg/kg/injection, schedule: Q01DX009 (ip), vehicle: other 104 % of control | dose: 400.0 mg/kg/injection, schedule: Q01DX009 (ip), vehicle: other 103 % of control

Cc1cccc(C)c1NS(=O)(=O)c1ccc(Cl)cc1
inactive: [12] 107 % of control | dose: 100.0 mg/kg/injection, schedule: Q04DX003 (ip), vehicle: Klucel (hydroxypropylcellulose) (HPC) 101 % of control | [13] 88 % of control | dose: 200.0 mg/kg/injection, schedule: Q04DX003 (ip), vehicle: Klucel (hydroxypropylcellulose) (HPC) 102 % of control | dose: 400.0 mg/kg/injection, schedule: Q01DX009 (ip), vehicle: Klucel (hydroxypropylcellulose) (HPC) 95 % of control | dose: 400.0 mg/kg/injection, schedule: Q04DX003 (ip), vehicle: Klucel (hydroxypropylcellulose) (HPC) 98 % of control

CN(C)C(=S)Oc1ccc(C(=O)O)cc1
inactive: [14] 86 % of control | [15] 90 % of control | [16] 88 % of control
